Data: paper PMC5789271, “Absorption and Metabolism of Phenolics from Digests of Polyphenol-Rich Potato Extracts Using the Caco-2/HepG2 Co-Culture System” (Foods, 2018)
“And” between values parts separate entries of the source, which are not always exact repeats. Equal values may be shown once. “Also recorded” adds a separate entry of the source.

Columns and labels:
HepG2 cells = assay: HepG2 cell metabolism bioassay (basolateral chamber, further 3 h); conditions: for Fold increase of basolateral concentration after HepG2 incubation: 3 h with HepG2 cells, relative to initial basolateral value
Description: Cells were incubated at 37 °C with 5% CO2 and 90% humidity and were monitored daily.
During this time, the medium was changed every other day. Before starting the treatments, the integrity of the monolayer was checked by measuring the transepithelial electrical resistance (TEER). […] Caco-2 monolayers having reached a TEER of 250 ohm/cm^2 or greater were used for the transport experiment [29]. […] Medium (500 µL) containing digesta of PRPE was added to the apical side of the wells and incubated for up to 2 h. […] Samples were taken from the receiver well after 2 and 5 h. […] All samples were centrifuged at 2000× g for 15 min and the supernatants were stored at −20 °C for further analysis by LC-MS.
After thawing, samples were vortexed and filtered using 25 mm syringe filters (0.45 µm, MCE, Fisher Scientific, Ottawa, ON, Canada) and transferred to HPLC vials for LC-MS analysis. […] Phenolic compounds and metabolites were eluted using a gradient of solvent A (10 mM formic acid, pH 3.5) and B (5 mM ammonium formate solution in 100% methanol), starting with 5% B, increasing to 30% B in 5 min, 70% B in 7 min, and 100% B at 9 min. This condition was maintained for 3 min. A solvent flow rate of 1.0 mL/min was used and 20 µL of sample was injected into the LC system. […] The analyses were performed in both positive and negative modes and the data was acquired over a mass range of m/z 100–1000. […] The data were acquired and processed using Agilent Mass Hunter software version B.04.00. […] The relative abundance of the compounds was calculated relative to the quantification of benzoic acid as the reference peak, as benzoic acid was present in all the cellular compartments at the same concentration at all time points.

Caco-2 cells = assay: Caco-2 cell transport bioassay (Caco-2/HepG2 co-culture, 2 h); format: in vitro ADME, human; design: Percentage of Control Value at 0 h, A (2 h) / Percentage of Control Value at 0 h, B (2 h): concentration or dose not given beside the values; conditions: for Percentage of Digesta Value, A (2 h) / Percentage of Digesta Value, B (2 h): PRPE digesta 10% (v/v); for Percentage of Digesta Value, A (2 h) / Percentage of Control Value at 0 h, A (2 h): apical chamber after 2 h; for Percentage of Digesta Value, B (2 h) / Percentage of Control Value at 0 h, B (2 h): basolateral chamber after 2 h; for Percentage of Control Value at 0 h, A (2 h) / Percentage of Control Value at 0 h, B (2 h): control digesta
[1] = tested on: human intestinal microbial ecosystem (colonic microbiota); assay: Simulated digestion of PRPE in the dynamic multi-reactor GI model, LC-MS phenolic profile of pooled colonic digesta; format: in vitro ADME; conditions: pooled digesta of three colonic vessels, 24 h; further: key: (+) present; (T) trace amount
From the text: PRPE was subjected to in vitro digestion by the GI model as described previously in detail. Briefly, the model was composed of five double-jacketed vessels representing the stomach, the small intestine, the ascending colon, the transverse colon, and the descending colon. The model was fully computer controlled. The pH was automatically controlled by addition of 0.2 M HCl and 0.5 M NaOH solution upon a change in pH in the vessels to simulate the in vivo conditions in the different segments of the human gastrointestinal tract. The temperature was kept at 37 °C and anaerobic conditions were maintained in the fermentation vessels by flushing nitrogen gas for 20 min into the airspace every day. The experiment was started after a 2-week stabilization period in which fecal slurry, obtained from five healthy volunteers with no history of GI disease or antibiotic use in the previous six months, were inoculated into the last three vessels. After the 2-week stabilization period, 130 g PRPE was dissolved in the GI food mixture, which was composed of the following ingredients: arabinolactan, pectin, xylan, starch, glucose, yeast extracts, peptone, mucin, and cysteine powders—a composition previously developed by Molly et al. (1993). The GI food mixture was stored at 4 °C during the study. Samples were collected from all three colonic vessels before and 24 h after addition of PRPE to the GI digestion model. Each digestion was carried out in triplicate. Samples were centrifuged at 1000× g and stored at −80 °C for later analysis by liquid chromatography–mass spectrometry (LC-MS) and for the cell culture experiments.
The samples that were collected from the last three colonic vessels of the gut model after 24 h digestion were pooled after each experiment and prepared according to the method described previously. The samples were centrifuged at 36,000× g, 4 °C for 2 h. The supernatant was collected and the pH was neutralized to pH 7 before being filter sterilized with a 25 mm syringe filter (0.2 µm, MCE, Fisher Scientific, Ottawa, ON, Canada) and stored at −80 °C until used for the Caco-2/HepG2 cell experiments. Samples collected before the addition of PRPE were considered as the controls.
This condition was maintained for 3 min.

[2] = tested on: Caco-2 and HT29-MTX cells; design: method as in PMID 18154874; conditions: 1-h co-culture of Caco-2 and HT29-MTX cells; cited from earlier work
Caco-2 cell monolayer = tested on: Caco-2 cell monolayer; design: method as in PMID 12784628; conditions: cited from earlier work
[3] = PRPE digesta, basolateral chamber after 3 h with HepG2 cells alone (t = 5 h), relative to basolateral value at 2 h
[4] = control digesta, basolateral chamber after 3 h with HepG2 cells (t = 5 h)
[5] = listed as 3-hydroxyphenylacetic acid

Structure (SMILES)	Percentage of Basolateral Value, B (5 h) (HepG2 cells; [3])	Percentage of Digesta Value, A (2 h) (Caco-2 cells)	Percentage of Digesta Value, B (2 h) (Caco-2 cells)	Presence after human simulated intestinal digestion of PRPE [1]	Percentage of Basolateral Value, B (5 h) (HepG2 cells; [4])	Percentage of Control Value at 0 h, A (2 h) (Caco-2 cells)	Percentage of Control Value at 0 h, B (2 h) (Caco-2 cells)	Fold increase of basolateral concentration after HepG2 incubation (HepG2 cells; PRPE digesta)	also measured
O=C(O)c1cccc(O)c1 [3-Hydroxybenzoic acid]	100%	50%	5%	+					Percentage of Basolateral Value, B (5 h) (HepG2 cells; PRPE digesta, basolateral chamber after 3 h with HepG2 cells alone (t = 5 h), relative to basolateral value at 2 h, listed as 3-hydroxybenzoic acid): unchanged; Percentage of Digesta Value, B (2 h) (Caco-2 cells; listed as 3-hydroxybenzoic acid): 3–5%
O=C(O)Cc1cccc(O)c1 [3-Hydroxyphenylacetic acid]	-	70%	-	+	-	100%	-		Percentage of Digesta Value, A (2 h) (Caco-2 cells; [5]): 65–70%; Percentage of Digesta Value, B (2 h) (Caco-2 cells; [5]): not detected; also recorded: none of these three compounds were measurable
O=C(O)CCc1cccc(O)c1 [3-Hydroxyphenylpropionic acid, 3-(3-Hydroxyphenyl)propionic acid]	233%	69%	4%	+	-	90%	-	2.3 fold	Percentage of Basolateral Value, B (5 h) (HepG2 cells; PRPE digesta, basolateral chamber after 3 h with HepG2 cells alone (t = 5 h), relative to basolateral value at 2 h, listed as 3-hydroxyphenylpropionic acid): 160–370%; Percentage of Digesta Value, B (2 h) (Caco-2 cells; listed as 3-hydroxyphenylpropionic acid): 3–5%
O=C(O)c1ccccc1 [Benzoic acid]	+	+	+	+	+	+	+		
O=C(O)C=Cc1ccccc1 [Cinnamic acid, 3-Phenylprop-2-enoic acid]				+					
O=C(O)/C=C/c1ccc(O)cc1 [Coumaric acid]	212%	68%	3%	+				More than a two-fold increase	Percentage of Digesta Value, B (2 h) (Caco-2 cells; listed as coumaric acid): 3–5%
O=C(O)CCc1ccc(O)c(O)c1 [Dihydrocaffeic acid, 3-(3′,4′-Dihydroxyphenyl)propionic acid]	338%	67%	15%	+	123%	26%	26%	three-fold increase	Percentage of Basolateral Value, B (5 h) (HepG2 cells; PRPE digesta, basolateral chamber after 3 h with HepG2 cells alone (t = 5 h), relative to basolateral value at 2 h, listed as dihydrocaffeic acid): 160–370%; Percentage of Digesta Value, B (2 h) (Caco-2 cells; listed as dihydrocaffeic acid): 10–15% and 10%; Permeability across Caco-2 cells [2]: 0.5%
COc1cc(CCC(=O)O)ccc1O [Dihydroferulic acid, 3-(4-Hydroxy-3-methoxyphenyl)propionic acid]	78%	78%	10%	+					Percentage of Digesta Value, B (2 h) (Caco-2 cells; listed as dihydroferulic acid): 10–15% and 15%
COc1cc(/C=C/C(=O)O)ccc1O [Ferulic acid, (E)-3-(4-Hydroxy-3-methoxy-phenyl)prop-2-enoic acid]	166%	90%	11%	+				1.6 fold	Percentage of Basolateral Value, B (5 h) (HepG2 cells; PRPE digesta, basolateral chamber after 3 h with HepG2 cells alone (t = 5 h), relative to basolateral value at 2 h, listed as ferulic acid): 160–370%; Percentage of Digesta Value, B (2 h) (Caco-2 cells; listed as ferulic acid): 10–15%; Percentage transported to the basolateral side of the Caco-2 cell monolayer (Caco-2 cell monolayer): 3.42%
O=C(O)CCc1ccccc1 [Phenylpropanoic acid]	-	65%	-	+	-	100%	-		Percentage of Digesta Value, A (2 h) (Caco-2 cells; listed as phenylpropanoic acid): 65–70%; Percentage of Digesta Value, B (2 h) (Caco-2 cells; listed as phenylpropanoic acid): not detected; also recorded: none of these three compounds were measurable
O=C(O)c1ccc(O)c(O)c1 [Protocatechuic acid, 3,4-Dihydroxybenzoic acid]				+					
C[C@@H]1O[C@@H](OC[C@H]2O[C@@H](Oc3c(-c4ccc(O)c(O)c4)oc4cc(O)cc(O)c4c3=O)[C@H](O)[C@@H](O)[C@@H]2O)[C@H](O)[C@H](O)[C@H]1O [Rutin, Quercetin-3-O-rutinoside]				+					
COc1cc(C(=O)O)ccc1O [Vanillic acid, 4-Hydroxy-3-methoxybenzoic acid]				+					
